Measured values published in ChEMBL document CHEMBL3632574, “Synthesis and evaluation of antibacterial activity of (R)-2-methylheptyl isonicotinate, a putative naturally occurring bioactive agent” (2015).
Calls of active or inactive are those of the source. The calls are words filed in the database; no cut-off is given here.

Legend:
Bacillus subtilis [1] = assay: Antibacterial activity against Bacillus subtilis after 48 hrs; type: functional
Bacillus subtilis [2] = assay: Bactericidal activity against Bacillus subtilis up to 500 ug/ml after 48 hrs; type: functional, organism-based
Escherichia coli [3] = assay: Bactericidal activity against Escherichia coli up to 500 ug/ml after 48 hrs; type: functional, organism-based
Bacillus subtilis [4] = assay: Bacteriostatic activity against Bacillus subtilis up to 500 ug/ml after 48 hrs; type: functional, organism-based
Escherichia coli [5] = assay: Bacteriostatic activity against Escherichia coli up to 500 ug/ml after 48 hrs; type: functional, organism-based

SMILES | MIC (Bacillus subtilis [1]) | Activity (Bacillus subtilis [2]) | Activity (Escherichia coli [3]) | Activity (Bacillus subtilis [4]) | Activity (Escherichia coli [5])
CC1(C)S[C@@H]2[C@H](NC(=O)[C@H](N)c3ccccc3)C(=O)N2[C@H]1C(=O)O [AMPICILLIN] | < 10 µg/mL |  |  |  | 
CCCCCCCCOC(=O)c1ccncc1 |  | inactive | inactive | inactive | inactive
CCCCC[C@@H](C)COC(=O)c1ccncc1 |  | inactive | inactive | inactive | inactive
